Measured values as given in PubChem BioAssay AID1963973 (Molecular Pharmacology Branch, DTP, NCI, 2024).
Several values for one entry are separate records, joined by “and”; a condition that tells them apart may be missing. Equal values may be shown once. Values belong to the compound of their own block, whether it stands above or below them.

Test system: 883617-216-R-J1-PDC tumor spheroids, viability
Experiment: Anticancer human tumor 883617-216-R-J1-PDC patient-derived bladder carcinoma cell line growth inhibition [PI3K]
Settings: spheroids with HUVEC and MSC; for viability, T/C: stronger effect = lower value
Summary of the method: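 Complex 3D spheroids (cancer cells + endothelial HUVEC + mesenchymal stem cells); drug pairs of targeted agent x inavolisib/alpelisib/duvelisib/copanlisib; half-log series from ~Cmax, max 10 microM if Cmax unknown; endpoint viability.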

[1] = curve of first compound, second compound 0.00316 µM
[2] = curve of first compound, second compound 0.01 µM
[3] = curve of first compound, second compound 0.0316 µM
[4] = curve of first compound, second compound 0.1 µM
[5] = curve of first compound, second compound 0.316 µM
[6] = curve of first compound, second compound 1 µM
[7] = second compound 0.00316 µM, first compound 0.0316 µM
[8] = second compound 0.00316 µM, first compound 0.1 µM
[9] = second compound 0.00316 µM, first compound 0.316 µM
[10] = second compound 0.00316 µM, first compound 1 µM
[11] = second compound 0.00316 µM, first compound 3.16 µM
[12] = second compound 0.00316 µM, first compound 10 µM
[13] = second compound 0.01 µM, first compound 0.0316 µM
[14] = second compound 0.01 µM, first compound 0.1 µM
[15] = second compound 0.01 µM, first compound 0.316 µM
[16] = second compound 0.01 µM, first compound 1 µM
[17] = second compound 0.01 µM, first compound 3.16 µM
[18] = second compound 0.01 µM, first compound 10 µM
[19] = second compound 0.0316 µM, first compound 0.0316 µM
[20] = second compound 0.0316 µM, first compound 0.1 µM
[21] = second compound 0.0316 µM, first compound 0.316 µM
[22] = second compound 0.0316 µM, first compound 1 µM
[23] = second compound 0.0316 µM, first compound 3.16 µM
[24] = second compound 0.0316 µM, first compound 10 µM
[25] = second compound 0.1 µM, first compound 0.0316 µM
[26] = second compound 0.1 µM, first compound 0.1 µM
[27] = second compound 0.1 µM, first compound 0.316 µM
[28] = second compound 0.1 µM, first compound 1 µM
[29] = second compound 0.1 µM, first compound 3.16 µM
[30] = second compound 0.1 µM, first compound 10 µM
[31] = second compound 0.316 µM, first compound 0.0316 µM
[32] = second compound 0.316 µM, first compound 0.1 µM
[33] = second compound 0.316 µM, first compound 0.316 µM
[34] = second compound 0.316 µM, first compound 1 µM
[35] = second compound 0.316 µM, first compound 3.16 µM
[36] = second compound 0.316 µM, first compound 10 µM
[37] = second compound 1 µM, first compound 0.0316 µM
[38] = second compound 1 µM, first compound 0.1 µM
[39] = second compound 1 µM, first compound 0.316 µM
[40] = second compound 1 µM, first compound 1 µM
[41] = second compound 1 µM, first compound 3.16 µM
[42] = second compound 1 µM, first compound 10 µM
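Note: spheroids exposed to agents for 7 days before the viability read.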

IC50 (curve of compound): > 100 nM
SMILES: Cn1ncnc1[C@H]1c2n[nH]c(=O)c3cc(F)cc(c23)N[C@@H]1c1ccc(F)cc1
viability, T/C (compound 0.000316 µM): 92.5% [middle of 4 runs]
viability, T/C (compound 0.001 µM): 88.8% (2×) and 83.1% and 89.6%
viability, T/C (compound 0.00316 µM): 91.6% [middle of 4 runs]
viability, T/C (compound 0.01 µM): 84.4% [middle of 4 runs]
viability, T/C (compound 0.0316 µM): 75.7% [middle of 4 runs]
viability, T/C (compound 0.1 µM): 58.2% [middle of 4 runs]

IC50 [1]: > 10000 nM
IC50 [2]: 4880 nM
IC50 [3]: < 31.6 nM
IC50 [4]: < 31.6 nM
IC50 [5]: < 31.6 nM
IC50 [6]: < 31.6 nM
SMILES: C#Cc1c(F)ccc2cc(O)cc(-c3ncc4c(N5CC6CCC(C5)N6)nc(OCC56CCCN5CC(F)C6)nc4c3F)c12 (stereo not drawn) + COc1c(OCCCN2CCOCC2)ccc2c3n(c(=NC(=O)c4cnc(N)nc4)nc12)CCN3
viability, T/C [7]: 84.7%
viability, T/C [8]: 99.8%
viability, T/C [9]: 88.7%
viability, T/C [10]: 91.3%
viability, T/C [11]: 80%
viability, T/C [12]: 52.1%
viability, T/C [13]: 64.1%
viability, T/C [14]: 64.8%
viability, T/C [15]: 78.9%
viability, T/C [16]: 67.4%
viability, T/C [17]: 55.5%
viability, T/C [18]: 41%
viability, T/C [19]: 37%
viability, T/C [20]: 45.5%
viability, T/C [21]: 34.4%
viability, T/C [22]: 34%
viability, T/C [23]: 33.6%
viability, T/C [24]: 22.8%
viability, T/C [25]: 16.4%
viability, T/C [26]: 17.1%
viability, T/C [27]: 14.6%
viability, T/C [28]: 15.6%
viability, T/C [29]: 12.2%
viability, T/C [30]: 11.4%
viability, T/C [31]: 5.31%
viability, T/C [32]: 5%
viability, T/C [33]: 4.47%
viability, T/C [34]: 4.9%
viability, T/C [35]: 3.89%
viability, T/C [36]: 2.71%
viability, T/C [37]: 3.49%
viability, T/C [38]: 3.22%
viability, T/C [39]: 2.69%
viability, T/C [40]: 2.82%
viability, T/C [41]: 2.98%
viability, T/C [42]: 0.66%

IC50 [1]: > 10000 nM
IC50 [2]: > 10000 nM
IC50 [3]: > 10000 nM
IC50 [4]: < 31.6 nM
IC50 [5]: < 31.6 nM
IC50 [6]: < 31.6 nM
SMILES: CC(Cn1ccc(-c2ccc(C#N)c(Cl)c2)n1)NC(=O)c1cc(C(C)O)[nH]n1 (stereo not drawn) + CC(Nc1ccc2c(c1)OCCn1cc(N3C(=O)OCC3C(F)F)nc1-2)C(N)=O
viability, T/C [7]: 86.4%
viability, T/C [8]: 85.9%
viability, T/C [9]: 84.1%
viability, T/C [10]: 80.4%
viability, T/C [11]: 90.8%
viability, T/C [12]: 73.1%
viability, T/C [13]: 84%
viability, T/C [14]: 74.7%
viability, T/C [15]: 80.1%
viability, T/C [16]: 84%
viability, T/C [17]: 90.5%
viability, T/C [18]: 86.5%
viability, T/C [19]: 64.2%
viability, T/C [20]: 79.4%
viability, T/C [21]: 79.1%
viability, T/C [22]: 80.3%
viability, T/C [23]: 74.8%
viability, T/C [24]: 67.4%
viability, T/C [25]: 46.6%
viability, T/C [26]: 49.3%
viability, T/C [27]: 55.1%
viability, T/C [28]: 48.9%
viability, T/C [29]: 43.7%
viability, T/C [30]: 44.9%
viability, T/C [31]: 25.3%
viability, T/C [32]: 27.9%
viability, T/C [33]: 27.9%
viability, T/C [34]: 26.9%
viability, T/C [35]: 26.8%
viability, T/C [36]: 23.2%
viability, T/C [37]: 15.8%
viability, T/C [38]: 15%
viability, T/C [39]: 17%
viability, T/C [40]: 14.9%
viability, T/C [41]: 17.4%
viability, T/C [42]: 17.3%

IC50 [1]: 203 nM
IC50 [2]: 166 nM
IC50 [3]: 122 nM
IC50 [4]: < 3.16 nM
IC50 [5]: < 3.16 nM
IC50 [6]: < 3.16 nM
SMILES: CCN1CCN(Cc2ccc(Nc3ncc(F)c(-c4cc(F)c5nc(C)n(C(C)C)c5c4)n3)nc2)CC1 + CC(Nc1ccc2c(c1)OCCn1cc(N3C(=O)OCC3C(F)F)nc1-2)C(N)=O
viability, T/C (second compound 0.00316 µM, first compound 0.00316 µM): 86%
viability, T/C (second compound 0.00316 µM, first compound 0.01 µM): 80.7%
viability, T/C [7]: 59.5%
viability, T/C [8]: 58.4%
viability, T/C [9]: 46.2%
viability, T/C [10]: 43.8%
viability, T/C (second compound 0.01 µM, first compound 0.00316 µM): 73.8%
viability, T/C (second compound 0.01 µM, first compound 0.01 µM): 63.2%
viability, T/C [13]: 59.4%
viability, T/C [14]: 51.1%
viability, T/C [15]: 47.1%
viability, T/C [16]: 45%
viability, T/C (second compound 0.0316 µM, first compound 0.00316 µM): 57%
viability, T/C (second compound 0.0316 µM, first compound 0.01 µM): 55.4%
viability, T/C [19]: 52.6%
viability, T/C [20]: 52.6%
viability, T/C [21]: 37.5%
viability, T/C [22]: 36.3%
viability, T/C (second compound 0.1 µM, first compound 0.00316 µM): 49.3%
viability, T/C (second compound 0.1 µM, first compound 0.01 µM): 34.4%
viability, T/C [25]: 30.7%
viability, T/C [26]: 31%
viability, T/C [27]: 30.9%
viability, T/C [28]: 24.4%
viability, T/C (second compound 0.316 µM, first compound 0.00316 µM): 26.3%
viability, T/C (second compound 0.316 µM, first compound 0.01 µM): 26.8%
viability, T/C [31]: 18%
viability, T/C [32]: 19.9%
viability, T/C [33]: 15.4%
viability, T/C [34]: 17%
viability, T/C (second compound 1 µM, first compound 0.00316 µM): 13.8%
viability, T/C (second compound 1 µM, first compound 0.01 µM): 14%
viability, T/C [37]: 11.2%
viability, T/C [38]: 11.2%
viability, T/C [39]: 11.5%
viability, T/C [40]: 11.1%
